Columns and labels:
[1] = biological target: RhoA (Homo sapiens, UniProt P61586); conditions: cited from earlier work
[2] = system: D1 cells; assay: NK92 cell-induced optical signal of D1 cells (Epic RWG biosensor), modulation by pharmacological agents; type: cell-based, mouse; conditions: D1 cells pretreated with agent for 1 hour before NK cells; killer:target ratio 1; 28° C.
Procedure: The impact of six pharmacological agents was examined on the NK92 cell-induced optical signal of D1 cells. […] Brefeldin A (BFA), and Camptothecin are defined above. Kp7-6 is an exocyclic cystine-knot peptide that specifically antagonizes Fas/FasL-mediated cellular apoptotic signals, for example, it can reduce 58% of FasL-induced apoptosis in Jurkat cells at 1 mg/mL. Latrunculin inhibits actin polymerization in vitro and disrupts microfilament organization as well as microfilament-mediated processes. […] Wortmannin is a potent, selective, cell-permeable and irreversible inhibitor of phosphatidylinositol 3-kinase.
Cell culture—Natural killer cells-NK92MI and the multipotent mouse bone marrow D1 cell line were from American Type Culture Collection (Manassas, Va.). NK92MI cells were grown in RPMI medium plus 12.5% horse serum and 12.5 fetal bovine serum (FBS) and antibiotics. D1 cells were grown in Dulbecco's Modified Eagle's Medium supplemented with 10% fetal bovine serum (FBS) and antibiotics. Approximately 1×10^4 to 2×10^4 target cells of D1 in 50 μL medium were placed in each well of Epic® 384-well microplate. After cell seeding, the cells were cultured at 37° C. under air/5% CO2 until a high degree, e.g., 90% of confluence was reached (about 24 hrs). Cells were continuously cultured overnight in their corresponding media without any serum to keep cells at a quiescent state and cell confluence was over about 95%.
Epic® system and DMR assays—Epic® beta system was used during this study. For cell-cell interaction study, target cell density was at about 95-100% confluence and the cells were finally maintained with the appropriate medium as described above. Cell number of NK92MI was counted with Beckman Coulter Particle Counter. Unless stated otherwise, a ratio of 1 between killer cells and target cells was used. NK92MI cells were suspended in RPMI plus 2% FBS. A 20 μL aliquot of NK92MI solution was added to each well of a normal 384-well microplate (Corning Inc., Corning, N.Y.). The plates of the target cells and the natural killer cells were incubated in the Epic® instrument for at least 30 minutes to reach 28° C. For pharmacological agent studies, the D1 cells were pretreated with the agents for 1 hour before NK cells were introduced. All studies were carried out at 28° C. for consistency and having the lid of the microplate continuously on except for a short period of time (e.g., about seconds) when the solution was introduced to minimize the effect of temperature fluctuation and evaporative cooling.

[3] = system: CHO-ICAM1 cells; assay: NK92 cell-induced N-DMR signal of CHO-ICAM1 cells (Epic RWG biosensor), modulation by pharmacological agents; type: cell-based, Chinese hamster; conditions: CHO-ICAM1 cells pretreated with agent for 1 hour before NK cells; killer:target ratio 1; 28° C.
Source text: The impacts of four pharmacological agents were examined on the NK92 cell-induced DMR signal of CHO-ICAM1 cells. FIG. 4 illustrate the modulation profile (response v. modulator concentration in microM) of the natural killer cell-induced DMR signal of the target cell layer by four different modulators at different doses:
Cell culture—Natural killer cells-NK92MI, both parental CHO-K1 and engineered CHO expressing ICAM1 receptor (CHO-ICAM1) were purchased from American Type Culture Collection (Manassas, Va.). NK92MI cells were grown in RPMI medium plus 12.5% horse serum and 12.5 fetal bovine serum (FBS) and antibiotics. CHO-K1 cells and CHO-ICAM1 cells were grown in RPMI supplemented with 10% fetal bovine serum (FBS) and antibiotics. Approximately 1-2×10^4 target cells of CHO-K1 or CHO-ICAM1 in 50 μl medium were placed in each well of Epic® 384-well microplate. After cell seeding, the cells were cultured at 37° C. under air/5% CO2 until a high degree, e.g. 90%, of confluence was reached (e.g., about 24 hrs). Cells were continuously cultured for over night with their corresponding media without any serum to keep cells at a quiescent state and cell confluence was over 95%.
Epic® system and DMR assays—An Epic® beta system was used during this study. For cell-cell interaction study, target cell density was at 95-100% confluence and the cells were finally maintained with the appropriate medium as described above. Cell number of NK92MI was counted with Beckman Coulter Particle Counter (Beckman Coulter, Fullerton, Calif.). Unless stated otherwise, a ratio of 1 between killer cells and target cells was used. NK92MI cells were suspended in RPMI plus 2% FBS. A 20-microliter solution of NK92MI was aliquoted to each well of a normal 384-well microplate (Corning Inc., Corning, N.Y.). The plates of the target-cell and the natural killer cell were incubated in the Epic® instrument for at least 30 minutes to reach 28° C. For pharmacological agent studies, the Icam1 cells had been pretreated with the agents for 1 hour before the NK cells were introduced. All studies were carried out at 28° C. with the lid of the microplate on except for a short period of time (e.g., about several seconds) when the solution was introduced, in order to minimize the effect of temperature fluctuation and evaporative cooling.

Chain of RhoA (P61586 whole entry, species assumed): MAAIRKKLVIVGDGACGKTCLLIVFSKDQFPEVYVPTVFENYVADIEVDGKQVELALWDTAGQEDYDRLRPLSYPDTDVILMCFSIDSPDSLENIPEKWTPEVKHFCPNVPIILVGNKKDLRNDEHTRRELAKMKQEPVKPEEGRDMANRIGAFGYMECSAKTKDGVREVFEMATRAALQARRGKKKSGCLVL

## CCN(CC)CCCC(C)Nc1nc(C)cc(Nc2ccc3nc(C)cc(N)c3c2)n1 (racemic) [Rac1 inhibitor]
[1]
  effect on RhoA activation: no effect
[2]
  effect on NK92-induced signals of D1 cells: dose dependently increases

## C[C@H]1CCC/C=C/[C@@H]2C[C@H](O)C[C@H]2[C@H](O)/C=C/C(=O)O1 [BFA, Brefeldin A]
[2]
  effect on NK92-induced signals of D1 cells: dose dependently increases
[3]
  effect on NK92-induced N-DMR of CHO-ICAM1 cells: dose dependently increases

## N#CC(=C(/N)Sc1ccccc1N)/C(C#N)=C(\N)Sc1ccccc1N [U0126]
[3]
  effect on NK92-induced N-DMR of CHO-ICAM1 cells: dose-dependently suppressed

## CC[C@@]1(O)C(=O)OCc2c1cc1n(c2=O)Cc2cc3ccccc3nc2-1 [camptothecin, Camptothecin]
[2]
  effect on NK92-induced signals of D1 cells: dose dependently increases
[3]
  effect on NK92-induced N-DMR of CHO-ICAM1 cells: dose dependently increases

## COC(=O)CC[C@H](NC(=O)[C@H](CC(=O)OC)NC(=O)OCc1ccccc1)C(=O)N[C@H](C(=O)N[C@@H](CC(=O)OC)C(=O)CF)C(C)C [caspase 3 inhibitor]
[3]
  effect on NK92-induced N-DMR of CHO-ICAM1 cells: little effect

## C/C1=C/C(=O)O[C@@H]2C[C@@H](CC[C@H](C)/C=C\C=C\CC1)O[C@@](O)([C@@H]1CSC(=O)N1)C2 [latrunculin A]
[2]
  effect on NK92-induced signals of D1 cells: dose dependently increases

## CC[C@]1(O)C[C@@H]2CN(CCc3c([nH]c4ccccc34)[C@@](C(=O)OC)(c3cc4c(cc3OC)N(C)[C@H]3[C@@](O)(C(=O)OC)[C@H](OC(C)=O)[C@]5(CC)C=CCN6CC[C@]43[C@@H]65)C2)C1 [vinblastine, Vinblastine]
[3]
  effect on NK92-induced N-DMR of CHO-ICAM1 cells: dose dependently increases

Source: patent US20090181409A1, “Optical biosensor method for cell-cell interaction” (priority 2008, published 2009)
